# Experimental data reported in PMC7409137, “Characterisation of Ovarian Cancer Cell Line NIH-OVCAR3 and Implications of Genomic, Transcriptomic, Proteomic and Functional DNA Damage Response Biomarkers for Therapeutic Targeting” (Cancers, 2020).
# Like-named read-outs stand apart in the source and are kept apart here.
# Legend:
# [1] = tested on: p53 mutant CLL cells; design: method as in PMID 26312880; details: cited from earlier work
# [2] = tested on: panel of cell lines, including the HCT116 p53 isogenic pair; design: method as in PMID 28062704; details: panel of cell lines incl. HCT116 p53 isogenic pair; cited from earlier work
# [3] = tested on: HRR competent (HRC) cell lines; assay: Colony formation assay, HRR competent cell lines
# Experimental: (§1) NIH-OVCAR3 cells were exposed to (A) VE-821 for 48 h, (B) carboplatin for 24 h or (C) rucaparib for 24 h. Media was replaced with drug free media for 21 days to allow colony formation. Data are the mean and standard deviation of at least three independent experiments. (D) Sensitivity of an additional 12 ovarian cancer cell lines to the three drugs was calculated in the same way and LC50 values were calculated. […] Data are pooled from 3 independent experiments per cell line.
# (§2) Cells were plated into 6-well tissue culture dishes at low densities and allowed to adhere for 24 h before being treated for 24 h with carboplatin (0–50 µM) or rucaparib (0–30 µM), or 48 h with VE-821 (0–30 µM). DMSO concentration was kept constant at 0.5%, including no-drug control, for drugs dissolved in DMSO. Following treatment, the medium was removed and replaced with fresh drug-free medium to allow colony formation. The cells were fixed in methanol: acetic acid (3:1 v/v) and stained with 0.4% crystal violet. Colonies were counted and the % survival for each treatment was calculated from the relative plating efficiency of treated versus untreated controls.
# [4] = tested on: BRCA1 mutant HRR defective (HRD) cell lines (COV362 and UWB1.289); assay: Colony formation assay, HRR defective cell lines
# Experimental: as §1, §2
# [5] = tested on: 12 ovarian cancer cell lines; assay: Colony formation assay, panel of 12 other ovarian cancer cell lines (mean)
# Experimental: as §1, with “(D) Sensitivity of an additional 12 ovarian cancer cell lines to the three drugs was calculated in the same way and LC50 values were calculated.” left out
# as §2
# [6] = tested on: NIH-OVCAR3 cells; assay: cells
# Experimental: as §1, §2
# [7] = tested on: M059J and M059J-Fus1 cells; design: method as in PMID 22576130; details: cited from earlier work
# [8] = tested on: p53; format: cell-based, human
# [9] = tested on: NIH-OVCAR3 cells; assay: Immunofluorescence based γH2AX-RAD51 foci assay; format: cell-based, human; details: 10 µM rucaparib, 48 h vs 0.5% DMSO
# Experimental: Figure 4 Assessment of HRR and NHEJ in the NIH-OVCAR3 cells. (A) Cells were exposed to 0.5% DMSO (control) or 10 µM rucaparib for 48 h before being fixed and stained as per the protocol outlined in the methods. After imaging, the number of γH2AX and RAD51 foci per nucleus was calculated using ImageJ software, data points represent number of foci in an individual nucleus. The fold change in number of foci per nuclei between control and 10 µM rucaparib was then calculated. (B) Cells were co-transfected with pDRGFP and pCBASceI plasmids and analysed for the presence of GFP-positive cells 48 h post-transfection. % HRR activity was calculated by normalizing to the untransfected control. […] (C) Cells were co-transfected with pimEJ5GFP and pCBASceI plasmids and analysed for the presence of GFP-positive cells 48 h post-transfection. % NHEJ activity was calculated by normalizing to the untransfected control. […] [* p < 0.05; ** p < 0.005; **** p < 0.0001 (unpaired t-test)].
# HRR was assessed by immunofluorescence. Cells were treated for 48 h with 10 μM rucaparib with 0.5% DMSO concentration for the untreated and treated cells. […] The number of γH2AX and RAD51 foci in each cell was quantified using ImageJ software and data was plotted using GraphPad Prism (GraphPad, San Diego, CA, USA).
# [10] = tested on: HCT116 p53 isogenic cell line pair; design: method as in PMID 30127241; details: cited from earlier work
# [11] = molecular target: T1, ATR (Homo sapiens, UniProt Q13535); assay: ATR inhibition by western blot of pCHK1Ser345 after 4NQO, 9 other ovarian cancer cell lines; format: cell-based; details: mean of 9 ovarian cell lines
# T1 construct: NIH-OVCAR3 cells and 9 other ovarian cancer cell lines were exposed to 4NQO ± VE-821 as indicated for 1 hr before western blotting; endogenous in cells
# Experimental: (§3) (A) NIH-OVCAR3 cells and 9 other ovarian cancer cell lines were exposed to 4NQO ± VE-821 as indicated for 1 hr before western blotting. Chemiluminescence was quantified using Syngene software and expression of pCHK1Ser345 was normalised to vinculin expression. Western blot image is from a single representative experiment with pooled data from 3 independent experiments per cell line used to calculate the mean VE-821 IC50 and percentage inhibition at 1 µM VE-821. (B) Bar chart represents log-transformed read counts obtained from RNA-Seq data for each gene normalized to ACTB mRNA expression for NIH-OVCAR3 cells (black bars) and the mean mRNA expression of each gene across 12 cell lines (white bars) where each black dot represents one cell line. (C) Bar chart represents protein expression normalised to Ponceau-s staining calculated using ImageJ software in NIH-OVCAR3 cells (black bars) and the mean protein expression of each gene across 12 cell lines (white bars) where each black dot represents one cell line. Data are from a single experimental repeat. [PRKDC: DNA-PKcs, XRCC5: Ku80, XRCC6: Ku70]. […] Western blot of baseline protein expression in panel of ovarian cancer cell lines can be found at Figure S5.
# [12] = molecular target: T1, ATR; assay: ATR inhibition by western blot of pCHK1Ser345 after 4NQO, NIH-OVCAR3; format: cell-based
# Experimental: as §3
# [13] = ratio of LC50, colony formation
# [14] = Homo sapiens, 24 h, read-out: Rucaparib LC50 ± SD
# [15] = Homo sapiens, 48 h, read-out: VE-821 LC50 ± SD
# T1 sequence (Q13535 whole entry): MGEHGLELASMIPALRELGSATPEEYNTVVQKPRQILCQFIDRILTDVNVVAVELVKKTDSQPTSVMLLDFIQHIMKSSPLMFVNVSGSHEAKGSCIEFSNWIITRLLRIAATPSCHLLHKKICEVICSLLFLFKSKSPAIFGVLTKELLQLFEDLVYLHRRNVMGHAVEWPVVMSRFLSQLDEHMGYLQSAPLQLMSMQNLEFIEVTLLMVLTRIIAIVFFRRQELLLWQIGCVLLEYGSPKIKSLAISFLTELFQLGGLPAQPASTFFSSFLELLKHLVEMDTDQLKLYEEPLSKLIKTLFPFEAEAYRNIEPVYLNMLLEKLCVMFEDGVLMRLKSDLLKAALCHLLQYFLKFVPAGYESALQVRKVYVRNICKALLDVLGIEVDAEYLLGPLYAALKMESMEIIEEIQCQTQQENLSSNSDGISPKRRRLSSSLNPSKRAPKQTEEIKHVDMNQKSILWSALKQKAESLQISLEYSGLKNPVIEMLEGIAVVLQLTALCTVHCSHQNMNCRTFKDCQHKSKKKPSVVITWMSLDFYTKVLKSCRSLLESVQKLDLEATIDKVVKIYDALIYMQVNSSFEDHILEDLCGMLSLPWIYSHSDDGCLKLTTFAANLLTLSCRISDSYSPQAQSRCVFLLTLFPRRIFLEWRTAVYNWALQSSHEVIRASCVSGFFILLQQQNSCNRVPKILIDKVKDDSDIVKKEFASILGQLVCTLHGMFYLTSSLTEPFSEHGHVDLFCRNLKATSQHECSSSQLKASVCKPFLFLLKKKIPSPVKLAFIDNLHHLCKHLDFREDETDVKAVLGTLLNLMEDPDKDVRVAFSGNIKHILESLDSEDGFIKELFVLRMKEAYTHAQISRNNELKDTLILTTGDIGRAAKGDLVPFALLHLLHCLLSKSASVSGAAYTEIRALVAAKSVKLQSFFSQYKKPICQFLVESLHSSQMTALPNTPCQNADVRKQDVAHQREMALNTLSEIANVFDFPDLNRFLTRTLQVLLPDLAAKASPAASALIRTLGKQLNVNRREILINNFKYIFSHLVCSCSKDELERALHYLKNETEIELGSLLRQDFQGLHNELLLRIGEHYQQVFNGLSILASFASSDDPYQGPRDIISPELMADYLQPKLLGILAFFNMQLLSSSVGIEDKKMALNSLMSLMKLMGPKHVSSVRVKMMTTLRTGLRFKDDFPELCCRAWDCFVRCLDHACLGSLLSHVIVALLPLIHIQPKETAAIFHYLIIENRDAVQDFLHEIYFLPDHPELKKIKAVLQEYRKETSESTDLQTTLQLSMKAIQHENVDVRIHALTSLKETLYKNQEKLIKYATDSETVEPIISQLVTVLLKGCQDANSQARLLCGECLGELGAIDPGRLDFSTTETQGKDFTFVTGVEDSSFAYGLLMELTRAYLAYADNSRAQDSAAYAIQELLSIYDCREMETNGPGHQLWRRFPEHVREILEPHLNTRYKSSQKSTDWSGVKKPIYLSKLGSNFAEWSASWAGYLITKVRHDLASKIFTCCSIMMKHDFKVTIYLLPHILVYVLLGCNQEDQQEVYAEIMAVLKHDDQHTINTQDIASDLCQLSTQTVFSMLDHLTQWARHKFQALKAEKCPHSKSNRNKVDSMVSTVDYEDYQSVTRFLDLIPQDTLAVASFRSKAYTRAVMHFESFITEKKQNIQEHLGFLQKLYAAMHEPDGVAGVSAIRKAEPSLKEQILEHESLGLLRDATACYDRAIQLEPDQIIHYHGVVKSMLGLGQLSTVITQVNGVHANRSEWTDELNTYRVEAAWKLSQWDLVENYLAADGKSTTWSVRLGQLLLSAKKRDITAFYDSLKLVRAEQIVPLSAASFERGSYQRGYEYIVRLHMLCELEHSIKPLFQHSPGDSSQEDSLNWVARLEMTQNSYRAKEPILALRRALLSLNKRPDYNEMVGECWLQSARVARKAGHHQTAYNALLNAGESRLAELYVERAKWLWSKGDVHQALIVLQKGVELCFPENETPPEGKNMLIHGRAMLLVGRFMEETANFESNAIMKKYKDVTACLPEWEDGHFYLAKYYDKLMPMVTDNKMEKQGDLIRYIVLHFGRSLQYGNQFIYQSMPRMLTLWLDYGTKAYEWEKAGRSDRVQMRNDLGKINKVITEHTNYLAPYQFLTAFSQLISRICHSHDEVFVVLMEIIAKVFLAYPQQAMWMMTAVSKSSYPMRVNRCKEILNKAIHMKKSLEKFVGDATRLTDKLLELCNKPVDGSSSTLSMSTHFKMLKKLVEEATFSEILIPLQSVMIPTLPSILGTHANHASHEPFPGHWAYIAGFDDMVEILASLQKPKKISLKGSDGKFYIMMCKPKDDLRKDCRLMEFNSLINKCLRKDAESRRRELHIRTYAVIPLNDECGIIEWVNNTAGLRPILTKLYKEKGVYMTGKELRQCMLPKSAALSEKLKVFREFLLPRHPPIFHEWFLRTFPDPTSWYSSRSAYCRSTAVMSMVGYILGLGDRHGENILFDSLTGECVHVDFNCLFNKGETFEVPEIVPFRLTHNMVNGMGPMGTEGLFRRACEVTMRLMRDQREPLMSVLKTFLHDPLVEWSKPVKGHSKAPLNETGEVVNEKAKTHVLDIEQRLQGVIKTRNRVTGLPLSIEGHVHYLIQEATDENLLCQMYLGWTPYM
# T1 sequence (Q8WXE1 whole entry partner): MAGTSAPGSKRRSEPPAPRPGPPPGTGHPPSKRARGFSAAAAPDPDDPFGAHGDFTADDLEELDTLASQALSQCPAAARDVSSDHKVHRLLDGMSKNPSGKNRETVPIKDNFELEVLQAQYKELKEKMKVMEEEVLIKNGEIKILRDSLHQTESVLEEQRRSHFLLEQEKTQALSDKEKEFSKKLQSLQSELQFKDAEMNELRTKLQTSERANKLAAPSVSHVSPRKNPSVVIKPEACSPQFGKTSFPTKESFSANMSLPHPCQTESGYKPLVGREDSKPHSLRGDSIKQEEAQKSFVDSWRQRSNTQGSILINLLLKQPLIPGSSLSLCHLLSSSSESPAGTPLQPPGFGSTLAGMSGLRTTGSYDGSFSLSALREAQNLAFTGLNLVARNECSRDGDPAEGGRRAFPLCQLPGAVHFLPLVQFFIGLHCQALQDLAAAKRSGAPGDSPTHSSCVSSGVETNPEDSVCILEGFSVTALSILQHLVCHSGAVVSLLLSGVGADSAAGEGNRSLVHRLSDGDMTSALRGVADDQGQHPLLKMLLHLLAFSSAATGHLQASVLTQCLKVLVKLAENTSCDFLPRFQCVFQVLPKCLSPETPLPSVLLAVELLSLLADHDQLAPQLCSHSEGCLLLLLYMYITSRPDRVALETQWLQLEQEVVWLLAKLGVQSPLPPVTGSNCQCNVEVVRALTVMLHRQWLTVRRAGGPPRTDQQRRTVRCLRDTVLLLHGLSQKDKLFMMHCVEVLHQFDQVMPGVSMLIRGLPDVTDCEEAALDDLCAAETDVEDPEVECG
compound,measurement,setting,value
C[C@@H]1COCCN1c1cc(C2([S@](C)(=N)=O)CC2)nc(-c2cc[nH]c3nccc2-3)n1 [AZD6738],Cytotoxicity in relation to p53 status,[1],selectively cytotoxic towards p53 mutant CLL cells
same,Sensitivity in relation to p53 status,[2],independent of p53 status
N.N.O=C([O-])C1(C(=O)[O-])CCC1.[Pt+2] [Carboplatin],CC50,"[3]; read-out: Carboplatin LC50 ± SD, HRC cell lines, 24 h exposure, colony formation",7020 ± 7090 nM
same,CC50,"[4]; read-out: Carboplatin LC50 ± SD, HRD cell lines, 24 h exposure, colony formation",1520 ± 940 nM
same,CC50,"[5]; read-out: Carboplatin LC50 ± SD, mean of 12 ovarian cell lines, 24 h exposure, colony formation",6120 ± 6180 nM
same,"Fold more sensitive, NIH-OVCAR3 compared to the 12 ovarian cancer cell lines",[6]; [13],5 fold
same,CC50,"[6]; read-out: Carboplatin LC50 ± SD, NIH-OVCAR3, 24 h exposure, then drug free media 21 days, colony formation",1290 ± 340 nM
"COc1cccc2c1C(=O)c1c(O)c3c(c(O)c1C2=O)C[C@@](O)(C(=O)CO)C[C@@H]3O[C@H]1C[C@H](N)[C@H](O)[C@H](C)O1 [Doxorubicin, doxorubicin]",CC50,"[5]; Homo sapiens, 24 h, read-out: Doxorubicin LC50 ± SD",44.5 ± 15.5 nM
same,mean percentage cell survival at 100 nM,"[5]; mean of the 12 ovarian cancer cell lines, 100 nM doxorubicin",~ 12%
same,"Fold higher percentage cell survival, NIH-OVCAR3 vs mean of the 12 ovarian cancer cell lines",[6]; 100 nM doxorubicin,1.4 fold
same,CC50,"[6]; Homo sapiens, OVCAR-3, read-out: Doxorubicin LC50 ± SD",55 ± 1.97 nM
same,percentage cell survival at 100 nM,"[6]; NIH-OVCAR3, 100 nM doxorubicin",~ 17%
same,percentage cell survival at 100 nM,"[7]; M059J-Fus1 cells, 100 nM doxorubicin",~ 30%
same,"Fold more sensitive, NHEJ-deficient M059J vs NHEJ-proficient M059J-Fus1 cells",[7],20 fold
"Nc1ccn([C@@H]2O[C@H](CO)[C@@H](O)C2(F)F)c(=O)n1 [Gemcitabine, gemcitabine]",Gemcitabine LC50 ± SD,[5],28.7 nM
same,CC50,"[6]; Homo sapiens, OVCAR-3, read-out: Gemcitabine LC50 ± SD",41.5 ± 1.2 nM
COc1ccc(C2=N[C@@H](c3ccc(Cl)cc3)[C@@H](c3ccc(Cl)cc3)N2C(=O)N2CCNC(=O)C2)c(OC(C)C)c1 [Nutlin-3],Induction of MDM2 and p21 (indicators of p53 activation),[8],no induction of either MDM2 or p21
"CC(=O)O[C@H]1C(=O)[C@@]2(C)[C@H]([C@H](OC(=O)c3ccccc3)[C@]3(O)C[C@H](OC(=O)[C@H](O)[C@@H](NC(=O)c4ccccc4)c4ccccc4)C(C)=C1C3(C)C)[C@]1(OC(C)=O)CO[C@@H]1C[C@@H]2O [Paclitaxel, paclitaxel]",CC50,"[5]; Homo sapiens, 24 h, read-out: Paclitaxel LC50 ± SD",3.37 ± 2.41 nM
same,CC50,"[6]; Homo sapiens, OVCAR-3, read-out: Paclitaxel LC50 ± SD",2.71 ± 0.08 nM
"CNCc1ccc(-c2[nH]c3cc(F)cc4c3c2CCNC4=O)cc1 [Rucaparib, rucaparib]",CC50,[3]; [14],10500 ± 9610 nM
same,RAD51 foci formation,[9],increase in RAD51 foci formation
same,γH2AX foci formation,[9],induction in γH2AX foci
same,CC50,[4]; [14],280 ± 70 nM
same,CC50,[5]; [14],8800 ± 9580 nM
same,CC50,"[6]; Homo sapiens, OVCAR-3, read-out: Rucaparib LC50 ± SD",410 ± 60 nM
same,"Fold more sensitive, NIH-OVCAR3 compared to HRR competent (HRC) cell lines",[6]; [13],26 fold
same,"Fold more sensitive, NIH-OVCAR3 compared to the 12 ovarian cancer cell lines",[6]; [13],21 fold
"CC[C@@]1(O)C(=O)OCc2c1cc1n(c2=O)Cc2cc3c(CN(C)C)c(O)ccc3nc2-1 [Topotecan, topotecan]",CC50,"[5]; Homo sapiens, 24 h, read-out: Topotecan LC50 ± SD",15.6 ± 9.32 nM
same,CC50,"[6]; Homo sapiens, OVCAR-3, read-out: Topotecan LC50 ± SD",7.2 ± 0.36 nM
CS(=O)(=O)c1ccc(-c2cnc(N)c(C(=O)Nc3ccccc3)n2)cc1 [VE-821],CC50,[3]; [15],1680 ± 1190 nM
same,Difference in sensitivity to single agent between p53 isogenic cells,[10],no difference in sensitivity
same,CC50,[4]; [15],1010 ± 500 nM
same,inhibition at 1 µM,"[11]; 1 μM VE-821, 4NQO, 1 hr, pCHK1Ser345, read-out: ATR Inhibition at 1 μM VE-821 ± SD",78.1 ± 13.4%
same,IC50,"[11]; 4NQO ± VE-821 for 1 hr, western blot, read-out: VE-821 IC50 ± SD (ATR inhibition, pCHK1Ser345)",380 ± 200 nM
same,CC50,[5]; [15],1580 ± 1120 nM
same,CC50,"[6]; Homo sapiens, OVCAR-3, read-out: VE-821 LC50 ± SD",17900 ± 4560 nM
same,"Fold more resistant, NIH-OVCAR3 compared to panel of 12 ovarian cancer cell lines",[6]; [13],11 fold
same,IC50,"[12]; 4NQO ± VE-821 for 1 hr, western blot, normalised to vinculin, read-out: VE-821 IC50 ± SD (ATR inhibition, pCHK1Ser345)",310 ± 270 nM
same,inhibition at 1 µM,"[12]; OVCAR-3, 1 μM VE-821, 4NQO, 1 hr, pCHK1Ser345, read-out: ATR Inhibition at 1 μM VE-821 ± SD",81 ± 5.29%
